Data taken from publication PMC6154579, “Anti-Melanogenic Properties of Greek Plants. A Novel Depigmenting Agent from Morus alba Wood” (Molecules : A Journal of Synthetic Chemistry and Natural …, 2017).
“And” between values parts separate entries of the source, which are not always exact repeats. Equal values may be shown once. “Also recorded” adds a separate entry of the source. Read-outs that look alike come from different tables or passages of the source.

Assays:
[1] = tested on: B16F10 cells; assay: MTT cytotoxicity assay; type: cell-based, Mouse; settings: high concentrations
Method: Mouse skin melanoma (B16F10) cells were obtained from the American Tissue Culture Collection (Manassas, VA, USA) and were maintained in Dulbecco's modified Eagle’s medium (Gibco, Thermo Fischer Scientific, Waltham, MA, USA), supplemented with 10% (v/v) fetal bovine serum (Gibco, Thermo Fischer Scientific) and 2 mM glutamine (Gibco, Thermo Fischer Scientific) in a humidified incubator at 5% CO2 and 37 °C.
MTT cytotoxicity assay was performed as described previously. Briefly, B16F10 cells were cultured at 96-wellmicroplates (5000 cells/well). After 24 h the cells were treated with different concentrations of the extracts (in control cells an appropriate amount of DMSO was added). The MTT solution (MTT, Sigma-Aldrich) (1 mg/mL in serum free, phenol red free medium) was added 48 h after the addition of test extracts. After 4 h, the MTT solution was discarded and isopropanol was added to dissolve the formazan crystals. Absorbance was recorded at 570 nm using a microplate reader (EZ Read 400 ELISA microplate reader, Biochrom, Cambridge, UK). Survival of non-treated cells was set to 100%.

[2] = target: T1, mushroom tyrosinase (Agaricus bisporus, UniProt C7FF04); assay: Tyrosinase inhibition assay (oxidation of L-DOPA, diphenolase activity); type: biochemical; settings: for inhibition at 60 µM: read-out: Tyrosinase Inhibition % ± STD (60 μM); for inhibition at 300 µM: read-out: Tyrosinase Inhibition % ± STD (300 μM); for fold more potent tyrosinase inhibition than kojic acid: ratio of IC50 values vs reference kojic acid;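 for all read-outs here: dopachrome formation from L-DOPA by mushroom tyrosinase in phosphate buffer, compound preincubated with enzyme 10 min at 25 °C, inhibition versus sample-free control, enzyme-free blanks subtracted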
T1 construct: purchased Sigma-Aldrich

[3] = tested on: zebrafish embryos; assay: In vivo inhibition of melanogenesis assay; settings: embryos treated 24 to 48 hpf, ranking: most potent, followed by, weakest, Figure 5: MAM 70, F33 70, F38-42 10, F43 10, 1/5/6/7 50, 2 7, 11 10 μg/mL
[4] = compound at 60 μM, two independent experiments
[5] = compound at 300 μM, two independent experiments
[6] = diphenolase activity, three independent experiments, read-out: Tyrosinase Inhibition IC50 ± STD

T1 sequence (C7FF04 1-392 limits assumed): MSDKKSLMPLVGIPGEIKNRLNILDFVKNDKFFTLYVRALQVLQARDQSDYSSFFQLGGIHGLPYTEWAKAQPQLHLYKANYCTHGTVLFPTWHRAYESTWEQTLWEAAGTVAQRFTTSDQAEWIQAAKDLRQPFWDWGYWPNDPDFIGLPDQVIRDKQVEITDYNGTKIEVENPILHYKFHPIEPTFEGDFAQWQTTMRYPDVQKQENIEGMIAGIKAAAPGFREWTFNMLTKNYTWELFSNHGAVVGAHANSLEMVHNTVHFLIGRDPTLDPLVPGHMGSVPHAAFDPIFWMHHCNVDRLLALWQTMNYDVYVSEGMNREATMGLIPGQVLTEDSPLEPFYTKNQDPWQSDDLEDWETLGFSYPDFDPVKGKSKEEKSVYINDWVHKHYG

Row | Compound | inhibition at 60 µM [2, 4] [%] | inhibition at 300 µM [2, 5] [%] | melanogenesis inhibition on zebrafish embryos (in words) [3] | IC50 [2] [µM] | also measured
1 | Oc1cccc(CCc2ccc(O)cc2O)c1 [2,4,3′-Trihydroxydihydrostilbene (7), 2,4,3′-Trihydroxydihydrostilbene] | 96.3 ± 0.5 | 97.8 ± 0.1 | significantly suppress in vivo melanogenesis; also recorded: most potent; also recorded: significantly suppressed in vivo melanogenesis | – | cytotoxicity in cells (in words) [1]: non-cytotoxic in high concentrations; IC50 [2, 6]: 0.8 ± 0.15 µM; fold more potent tyrosinase inhibition than kojic acid [2]: ~ 20 fold and 20 fold
2 | O=Cc1ccc(O)cc1O [2,4-Dihydroxybenzaldehyde (9), 2,4-dihydroxybenzaldehyde] | – | 4.9 ± 0.3 | – | – | –
3 | Oc1cc(O)cc(CCc2ccc(O)cc2O)c1 [Dihydrooxyresveratrol (5), Dihydrooxyresveratrol] | – | – | – | 0.3 ± 0.05 | fold more potent tyrosinase inhibition than kojic acid [2]: ~ 50 fold; inhibition at 60 µM [2]: 97.6 ± 0.2%; inhibition at 300 µM [2]: 98.2 ± 0.5%; melanogenesis inhibition on zebrafish embryos (in words) ([3]; listed as dihydrooxyresveratrol): only partially inhibited the melanogenesis
4 | CC(C)=CCc1c(-c2ccc(O)cc2O)oc2c(CC=C(C)C)c(O)cc(O)c2c1=O [Kuwanon C (2), kuwanon C] | 46.5 ± 1.3 | 75.6 ± 1.2 | weakest inhibitor of melanogenesis | 76.2 ± 1.1 | –
5 | CC(C)=CCc1c(-c2ccc(O)cc2O)oc2c(C3C=C(C)CC(c4ccc(O)cc4O)C3C(=O)c3ccc(O)cc3O)c(O)cc(O)c2c1=O (stereo not drawn) [Kuwanon G (12), kuwanon G] | – | – | – | 27.5 ± 1.2 | inhibition at 60 µM [2]: 59.1 ± 1.4%; inhibition at 300 µM [2]: 77.8 ± 2.8%
6 | CC(C)=CCc1c(O)ccc(C(=O)C2C(c3c(O)cc(O)c4c(=O)c(CC=C(C)C)c(-c5ccc(O)cc5O)oc34)C=C(C)CC2c2ccc(O)cc2O)c1O (stereo not drawn) [Kuwanon H (8), kuwanon H] | 46 ± 2.9 | 49 ± 2.6 | – | > 100 | –
7 | Oc1cc(O)cc(-c2cc3ccc(O)cc3o2)c1 [Moracin M (11), moracin M] | 61.3 ± 1.2 | 87.2 ± 0.5 | – | 8 ± 0.6 | –
8 | CC(C)=CCc1c(-c2ccc(O)cc2O)oc2c3c(cc(O)c2c1=O)OC(C)(C)C=C3 [Morusin (10), morusin] | 31 ± 3.2 | 49.9 ± 2.2 | – | > 100 | –
9 | OC[C@H]1O[C@@H](Oc2cc(O)cc(/C=C/c3ccc(O[C@@H]4O[C@H](CO)[C@@H](O)[C@H](O)[C@H]4O)cc3O)c2)[C@H](O)[C@@H](O)[C@@H]1O [Mulberroside A (3), mulberroside A] | 43.1 ± 0.7 | 58.3 ± 1.4 | – | > 100 | –
10 | Oc1cc(O)cc(/C=C/c2ccc(O)cc2O)c1 [Oxyresveratrol (1), oxyresveratrol] | – | – | significantly suppress in vivo melanogenesis; also recorded: most potent | – | –
11 | Oc1cccc(O)c1 [Resorcinol (4), resorcinol] | 38 ± 1.1 | 60.4 ± 1 | – | 163 ± 18.2 | –
12 | O=C1c2c(O)cc(O)cc2OC(c2ccc(O)cc2O)C1O (stereo not drawn) [trans-Dihydromorin (6), trans-dihydromorin] | 73.1 ± 0.6 | 94.3 ± 0.1 | significantly suppress in vivo melanogenesis; also recorded: most potent | – | IC50 [2, 6]: 9.4 ± 1.3 µM
